Laboratory results reported in article PMC11129182, “Development of Inhibitors, Probes, and PROTAC Provides a Complete Toolbox to Study PARK7 in the Living Cell” (Journal of Medicinal Chemistry, 2024).

The molecules below were run against T1, PARK7 (Homo sapiens, UniProt Q99497) (assay: High-throughput screen of the crude compound library, PARK7 fluorescence polarization (FP) assay with FP reagent JYQ-107). Conditions: 1.25 µM, crude compound library; read-out: HTS FP assay %Inhibition (1.25 µM).
T1 sequence (Q99497 1-189): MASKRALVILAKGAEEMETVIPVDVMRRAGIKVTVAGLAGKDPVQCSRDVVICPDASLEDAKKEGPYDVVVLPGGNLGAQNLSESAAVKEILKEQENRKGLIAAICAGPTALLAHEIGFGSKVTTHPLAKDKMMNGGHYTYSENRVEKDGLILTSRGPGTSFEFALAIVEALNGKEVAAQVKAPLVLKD
Type: biochemical
From the text: Therefore, taking JYQ-88 as a starting point, we conducted an optimization to further improve the molecule in terms of inhibitory potency, specificity, and cellular uptake. […] First, a small tailored library was designed and synthesized to investigate whether the introduction of larger, hydrophilic substituents on JYQ-88 would enhance the interaction with the PARK7 pocket. […] The second approach involved the generation of a compound library containing diverse substituents at the azidomethyl position. […] We next performed a high-throughput screen of this crude compound library using our in-house developed PARK7 fluorescence polarization (FP) assay.[15]

| Structure (SMILES) | inhibition at 1.25 µM [%] |
| --- | --- |
| N#CN1CC[C@@H](C(=O)Nc2nc3c(s2)CN(C(=O)c2nc(N4CCCC4)ncc2Cl)CC3)C1 [compound 6] | 71.7 |
| N#CN1CC[C@@H](C(=O)Nc2nc3c(s2)CN(C(=O)C(Cc2c[nH]cn2)NS(=O)(=O)c2ccc(Cl)cc2)CC3)C1 (some centres unmarked) [compound 7] | 67.3 |
| N#CN1CC[C@@H](C(=O)Nc2nc3c(s2)CN(C(=O)Cc2csc(-c4cnccn4)n2)CC3)C1 [compound 8] | 71.4 |
| N#CN1CC[C@@H](C(=O)Nc2nc3c(s2)CN(C(=O)CCN(Cc2ccccc2)S(=O)(=O)c2c(Cl)cccc2Cl)CC3)C1 [compound 9] | 69.7 |
| N#CN1CC[C@@H](C(=O)Nc2nc3c(s2)CN(C(=O)c2ncoc2-c2cccs2)CC3)C1 [compound 10] | 77.3 |
| Cc1ccc(-n2c(C)ccc2C)c(C(=O)N2CCc3nc(NC(=O)[C@@H]4CCN(C#N)C4)sc3C2)c1 [compound 12] | 66.6 |
| N#CN1CC[C@@H](C(=O)Nc2nc3c(s2)CN(C(=O)Cc2csc(COc4ccc(Cl)cc4)n2)CC3)C1 [compound 13] | 75.4 |
| N#CN1CC[C@@H](C(=O)Nc2nc3c(s2)CN(C(=O)Cc2cc(-c4ccccc4)on2)CC3)C1 [compound 14] | 73 |
| N#CN1CC[C@@H](C(=O)Nc2nc3c(s2)CN(C(=O)Cc2ccc(S(=O)(=O)N4CCCC4)s2)CC3)C1 [compound 15] | 69.5 |
| CN(C(=O)c1cccs1)c1ccccc1C(=O)N1CCc2nc(NC(=O)[C@@H]3CCN(C#N)C3)sc2C1 [compound 16] | 63 |
| CN1CCN(c2ccccc2C(=O)N2CCc3nc(NC(=O)[C@@H]4CCN(C#N)C4)sc3C2)CC1 [compound 17] | 51.2 |
| Cn1cc(-c2ocnc2C(=O)N2CCc3nc(NC(=O)[C@@H]4CCN(C#N)C4)sc3C2)cn1 [compound 18] | 60.9 |
| N#CN1CC[C@@H](C(=O)Nc2nc3c(s2)CN(C(=O)c2cc(S(N)(=O)=O)ccc2-c2cccc(C(F)(F)F)c2)CC3)C1 [compound 19] | 69 |
| N#CN1CC[C@@H](C(=O)Nc2nc3c(s2)CN(C(=O)c2cnoc2-c2cccs2)CC3)C1 [compound 20] | 73 |
| N#CN1CC[C@@H](C(=O)Nc2nc3c(s2)CN(C(=O)c2ccc(OCc4ccncc4)cc2)CC3)C1 [compound 21] | 59.5 |
| N#CN1CC[C@@H](C(=O)Nc2nc3c(s2)CN(C(=O)C2CCN(Cc4ccc(Cl)s4)CC2)CC3)C1 [compound 23] | 68.4 |
| N#CN1CC[C@@H](C(=O)Nc2nc3c(s2)CN(C(=O)C2CC(=O)N(c4cnccn4)C2)CC3)C1 (some centres unmarked) [compound 24] | 71.4 |
| CCC(C(=O)N1CCc2nc(NC(=O)[C@@H]3CCN(C#N)C3)sc2C1)n1nnc(-c2ccsc2)n1 (some centres unmarked) [compound 25] | 65.2 |
| Cc1cnn(-c2c(C(=O)N3CCc4nc(NC(=O)[C@@H]5CCN(C#N)C5)sc4C3)c(C)nn2C)c1 [compound 26] | 61.4 |
| N#CN1CC[C@@H](C(=O)Nc2nc3c(s2)CN(C(=O)c2csc(-c4ncccn4)n2)CC3)C1 [compound 27] | 80.8 |
| N#CN1CC[C@@H](C(=O)Nc2nc3c(s2)CN(C(=O)c2ncoc2C2CC2)CC3)C1 [compound 28] | 85.7 |

| Structure (SMILES) | inhibition at 1.25 µM [%] |
| --- | --- |
| N#CN1CC[C@@H](C(=O)Nc2nc3c(s2)CN(C(=O)CC(O)(c2nccn2Cc2ccccc2)C(F)(F)F)CC3)C1 (some centres unmarked) [compound 29] | 78.4 |
| Cc1ccc(NS(=O)(=O)c2cccc(C(=O)N3CCc4nc(NC(=O)[C@@H]5CCN(C#N)C5)sc4C3)c2)cc1 [compound 31] | 83.8 |
| N#CN1CC[C@@H](C(=O)Nc2nc3c(s2)CN(C(=O)[C@@H]2C[C@H]2c2ccco2)CC3)C1 [compound 32] | 87 |
| Cn1ncc(C(=O)N2CCc3nc(NC(=O)[C@@H]4CCN(C#N)C4)sc3C2)c1-n1cccc1 [compound 33] | 87 |
| N#CN1CC[C@@H](C(=O)Nc2nc3c(s2)CN(C(=O)C2(n4cnnn4)CC2)CC3)C1 [compound 34] | 65.7 |
| N#CN1CC[C@@H](C(=O)Nc2nc3c(s2)CN(C(=O)C2CC(OCc4ccccc4)C2)CC3)C1 (some centres unmarked) [compound 35] | 78.9 |
| N#CN1CC[C@@H](C(=O)Nc2nc3c(s2)CN(C(=O)C2(n4cnnn4)CCOCC2)CC3)C1 [compound 36] | 65.2 |
| N#CN1CC[C@@H](C(=O)Nc2nc3c(s2)CN(C(=O)c2noc(Cc4ccccc4F)n2)CC3)C1 [compound 37] | 73.8 |
| CCn1cc(S(=O)(=O)N2CCC(C(=O)N3CCc4nc(NC(=O)[C@@H]5CCN(C#N)C5)sc4C3)CC2)cn1 [compound 38] | 69 |
| N#CN1CC[C@@H](C(=O)Nc2nc3c(s2)CN(C(=O)[C@@H]2CCO[C@H]2c2ccccc2)CC3)C1 [compound 39] | 63.3 |
| N#CN1CC[C@@H](C(=O)Nc2nc3c(s2)CN(C(=O)c2cnnn2-c2ccccc2Cl)CC3)C1 [compound 40] | 68.9 |
| N#CN1CC[C@@H](C(=O)Nc2nc3c(s2)CN(C(=O)c2cnn(-c4ccncc4)c2)CC3)C1 [compound 41] | 66.3 |
| N#CN1CC[C@@H](C(=O)Nc2nc3c(s2)CN(C(=O)c2snnc2-c2ccc(Br)cc2)CC3)C1 [compound 42] | 69.7 |
| Cc1nc(CN2CCCC2C(=O)N2CCc3nc(NC(=O)[C@@H]4CCN(C#N)C4)sc3C2)no1 (some centres unmarked) [compound 43] | 71.1 |
| Cc1oc(-c2ccco2)nc1CC(=O)N1CCc2nc(NC(=O)[C@@H]3CCN(C#N)C3)sc2C1 [compound 44] | 71.6 |
| N#CN1CC[C@@H](C(=O)Nc2nc3c(s2)CN(C(=O)c2ccccc2OCc2ccncc2)CC3)C1 [compound 45] | 68.7 |
| COc1ccc(N2CCN(C(C)C(=O)N3CCc4nc(NC(=O)[C@@H]5CCN(C#N)C5)sc4C3)CC2)cc1 (some centres unmarked) [compound 46] | 71.3 |
| Cc1cc(C)c(C(=O)N2CCc3nc(NC(=O)[C@@H]4CCN(C#N)C4)sc3C2)c(OCC2CCCCC2)n1 [compound 47] | 75.4 |
| N#CN1CC[C@@H](C(=O)Nc2nc3c(s2)CN(C(=O)c2ccc(S(=O)(=O)NC4CC4)cc2)CC3)C1 [compound 48] | 79.8 |
| N#CN1CC[C@@H](C(=O)Nc2nc3c(s2)CN(C(=O)c2cc(-c4ccc(Cl)cc4)oc2C(F)(F)F)CC3)C1 [compound 49] | 70.8 |
| N#CN1CC[C@@H](C(=O)Nc2nc3c(s2)CN(C(=O)c2cccc(S(=O)(=O)Nc4ccc(Cl)cc4)c2)CC3)C1 [compound 50] | 86.7 |

| Structure (SMILES) | inhibition at 1.25 µM [%] |
| --- | --- |
| N#CN1CC[C@@H](C(=O)Nc2nc3c(s2)CN(C(=O)c2ccn(-c4ncc(C(F)(F)F)cc4Cl)n2)CC3)C1 [compound 51] | 85.7 |
| N#CN1CC[C@@H](C(=O)Nc2nc3c(s2)CN(C(=O)Cc2coc(-c4ccccc4)n2)CC3)C1 [compound 52] | 78.3 |
| Cn1cc(NS(=O)(=O)c2ccsc2C(=O)N2CCc3nc(NC(=O)[C@@H]4CCN(C#N)C4)sc3C2)cn1 [compound 53] | 64.9 |
| N#CN1CC[C@@H](C(=O)Nc2nc3c(s2)CN(C(=O)CC(NS(=O)(=O)c2ccccc2)c2ccc(Cl)cc2)CC3)C1 (some centres unmarked) [compound 54] | 80.8 |
| N#CN1CC[C@@H](C(=O)Nc2nc3c(s2)CN(C(=O)c2c[nH]nc2-c2cccnc2)CC3)C1 [compound 56] | 67.6 |
| N#CN1CC[C@@H](C(=O)Nc2nc3c(s2)CN(C(=O)Cc2ccc(NS(=O)(=O)c4c(Cl)cccc4Cl)cc2)CC3)C1 [compound 57] | 84.9 |
| N#CN1CC[C@@H](C(=O)Nc2nc3c(s2)CN(C(=O)c2csc(-c4cnccn4)n2)CC3)C1 [compound 58] | 74.4 |
| N#CN1CC[C@@H](C(=O)Nc2nc3c(s2)CN(C(=O)c2ccc(Oc4cccc(Cl)c4Cl)nn2)CC3)C1 [compound 60] | 69.8 |
| CC1CC1C(=O)N1CCCCC1C(=O)N1CCc2nc(NC(=O)[C@@H]3CCN(C#N)C3)sc2C1 (some centres unmarked) [compound 61] | 70.5 |
| N#CN1CC[C@@H](C(=O)Nc2nc3c(s2)CN(C(=O)c2ncoc2-c2ccco2)CC3)C1 [compound 62] | 78.9 |
| COc1cc(C(=O)N2CCc3nc(NC(=O)[C@@H]4CCN(C#N)C4)sc3C2)ccc1OCc1c(C)noc1C [compound 63] | 72.7 |
| N#CN1CC[C@@H](C(=O)Nc2nc3c(s2)CN(C(=O)Cc2ccc(S(=O)(=O)N4CCOCC4)s2)CC3)C1 [compound 65] | 87 |
| N#CN1CC[C@@H](C(=O)Nc2nc3c(s2)CN(C(=O)c2cc(OCc4ccccc4)ccn2)CC3)C1 [compound 66] | 70.6 |
| CN(Cc1ccco1)c1ccccc1C(=O)N1CCc2nc(NC(=O)[C@@H]3CCN(C#N)C3)sc2C1 [compound 67] | 72.7 |
| Cc1cccc(C(=O)N2CCCCC2C(=O)N2CCc3nc(NC(=O)[C@@H]4CCN(C#N)C4)sc3C2)n1 (some centres unmarked) [compound 68] | 66.5 |
| Cc1nc(-c2c(C)c(C)nn(C)c2=O)sc1C(=O)N1CCc2nc(NC(=O)[C@@H]3CCN(C#N)C3)sc2C1 [compound 69] | 70.5 |
| N#CN1CC[C@@H](C(=O)Nc2nc3c(s2)CN(C(=O)c2cnc(COc4ccccc4)s2)CC3)C1 [compound 70] | 85.9 |
| CC1=NN(c2ccc(C(=O)N3CCc4nc(NC(=O)[C@@H]5CCN(C#N)C5)sc4C3)cc2)CC1 [compound 71] | 69.5 |
| Cc1oc(Cn2cc(Br)cn2)cc1C(=O)N1CCc2nc(NC(=O)[C@@H]3CCN(C#N)C3)sc2C1 [compound 72] | 87 |

Same assay, conditions: read-out: HTS FP assay %Inhibition (1.25 µM)

| Structure (SMILES) | inhibition at 1.25 µM [%] |
| --- | --- |
| N#CN1CC[C@@H](C(=O)Nc2nc3c(s2)CNCC3)C1 [amine] | 39.9 |
